The source of these data is publication PMC11992225, “Antibacterial compounds against non-growing and intracellular bacteria” (npj Antimicrobials and Resistance, 2025).

In brackets after ≈: the same amount, converted by molar mass. Where two headings read alike, the source gives them in different places.

In general, EC50 refers to the concentration giving half of the maximal effect. By MIC is commonly meant the lowest concentration found to suppress growth.

Experiment [1] has as its system non-growing UPEC CFT073. Briefly: Dilution-regrowth assay (screen, hit validation, dose-response) on stationary-phase UPEC. The note with it: for OD600 at 6hr, Mean: after dilution into drug-free medium; for EC50: E. coli, pH 7.4, regrowth delay of non-growing bacteria, 1:4 CA-MHB, 24 h treatment, OD600 6 h after 2500-fold dilution, read-out: EC50; for activity in the dilution-regrowth screen: non-growing UPEC, 20 μM. In kind it is cell-based, Escherichia coli. The protocol: The cultures were incubated for 24 h in non-baffled Erlenmeyer flasks at 37 °C with shaking at 200 rpm.
The high-throughput screening (HTS) procedure was based on the protocol by Hazan and colleagues[15] and conducted at the Chemical Biology Consortium Sweden (CBCS) screening facility. […] Each plate included eight wells with 200 nl of 10 mM gatifloxacin, finafloxacin, and kanamycin solutions, along with 8-wells containing 200 nl of DMSO as controls. After 24 h incubation,100 μl of the culture was dispensed into each well of the 384-well plates for screening at a final concentration of 20 μM. The plates were sealed with parafilm and incubated at 37 °C for 24 h in closed humidified boxes, with wet paper towels added to prevent evaporation. […] The plates were incubated at 37 °C for 6 h in humidified boxes, then OD600 was measured using a microplate reader.
For hit validation, bacteria were cultivated, and the dilution-regrowth assay was conducted following the same protocol used in the primary screen. Hit compounds were dispensed into 384-well plates using the Echo® (Labcyte) system, with 200, 100, or 50 nl of a 10 mM solution in DMSO added per well, yielding final screening concentrations of 20, 10, and 5 μM, respectively. OD600 values of regrowing samples were normalized to the mean OD600 of the drug-free control. The testing was conducted in two replicates.
For UPEC, dose–response analysis was conducted at the CBCS screening facility. Bacteria were cultivated, and the dilution-regrowth assay was performed according to the HTS protocol. Compounds were dispensed into 384-well plates using the Echo® (Labcyte) system, and regrowth was assessed by measuring OD600 after 6 h of incubation at 37 °C in humidified boxes. Three biological replicates were performed.
Statistical significance of the drug effects was assessed using a one-way ANOVA followed by Dunnett’s test, comparing each treatment to the drug-free control. Statistical significance of the differences in chemical characteristics between the hit compounds and the Prestwick library was assessed using a Mann–Whitney test. Statistical significance was set at P ≤ 0.05. A five-parameter logistic equation was used for asymmetric sigmoidal curve fitting and for EC50 and IC50 determination. The Venn diagram in Fig. 1F was prepared using BioVenn web application. Characteristics of the chemical and physical properties of Prestwick library compounds were obtained from Supplementary Table S1 from reference. Characteristics of the hit compounds not included in the Prestwick library were retrieved from the PubChem database.

For experiment [2], the system named is non-growing UPEC CFT073. Put plainly: Dose-dependent killing analysis (CFU spot-plating) of stationary-phase UPEC. It is filed as cell-based, Escherichia coli. The note with it: E. coli in 1:4 CA-MHB (pH 7.4); for Δlog10(CFU/ml): average killing vs before treatment (8.977). As for the experimental part:
To differentiate between these scenarios, we used CFU counting by agar plating to assess the bactericidal effect on non-growing bacteria. […] Conversely, if no significant reduction in CFU is observed, the regrowth delay is due to PAE without killing. […] Fluoroquinolones are known to cause PAE after treatment of growing bacterial cultures.
For survival analysis, bacteria were cultivated as described for the dose–response dilution-regrowth assay. Assays with UPEC were conducted at the CBCS screening facility using 96-well plates with a 200 μl sample volume, and compounds were dispensed using the Echo® (Labcyte) system. P. aeruginosa and S. aureus samples were treated according to the protocol used for the dilution-regrowth experiments. Treated samples were serially diluted 10-fold in PBS, and 10 μl drops were spot-plated onto rectangular LB agar plates using either a Beckman NXP robot (for UPEC) or an Integra VIAFLO96 electronic pipette (for P. aeruginosa and S. aureus). The LB agar plates were incubated overnight at 37 °C and scanned. Colonies were counted at the spots of the lowest dilution where individual colonies could be accurately distinguished. Each colony was manually marked on a separate image layer using the GNU Image Manipulation Program, and counted using NIST’s Integrated Colony Enumerator (NICE 1.4) software. The experiments were performed in three biological replicates.

Another experiment concerns P. aeruginosa DSM1117. Briefly: MIC, standard microdilution assay, growing P. aeruginosa. In kind it is cell-based, Pseudomonas aeruginosa. The note with it: P. aeruginosa, CA-MHB pH 7.4, read-out: MIC (μM) CA-MHB. The protocol: (§1) Minimal inhibitory concentrations (MICs) were determined using a standard microdilution assay protocol. CA-MHB medium buffered with 40 mM HEPES (pH 7.4) was used to determine the MICs for UPEC, P. aeruginosa, and S. aureus. […] MICs for UPEC were also determined in LPM buffered with 30 mM MES (pH 5.5). For S. flexneri, MICs were determined in tryptic soy broth (TSB). The assay was performed in triplicates.

For a further experiment, the system named is E. coli CFT073 (UPEC). Briefly: MIC, standard microdilution assay, growing UPEC. In kind it is cell-based, Escherichia coli. The note with it: E. coli, pH 7.4. As for the experimental part:
as §1
Background: In broth dilution the organism is exposed to a series of concentrations in liquid medium.

The next experiment concerns S. flexneri 5a M90T. Put plainly: MIC in tryptic soy broth, S. flexneri. In kind it is cell-based, Shigella flexneri. The protocol:
as §1

The test system of another experiment is S. aureus DSM2569. Briefly: MIC, standard microdilution assay, growing S. aureus. It is filed as cell-based, Staphylococcus aureus. The note with it: Staphylococcus aureus, DSM2569; S. aureus; CA-MHB pH 7.4; read-out: MIC (μM) CA-MHB. The protocol:
as §1

With `CCC[C@H](NC(=O)/C(C#N)=C/c1cccc(Br)n1)c1ccccc1` [Degrasyn], the “OD600 at 6hr, Mean” value in the experiment with non-growing UPEC CFT073 [1] (E. coli in 1:4 CA-MHB (pH 7.4), 0.25 μM) is listed as 0.603; with non-growing UPEC CFT073 [1] (E. coli in 1:4 CA-MHB (pH 7.4), 0.5 μM) it was 0.604; in the experiment on non-growing UPEC CFT073 [1] (E. coli in 1:4 CA-MHB (pH 7.4), 1 μM), 0.558; in the experiment on non-growing UPEC CFT073 [1] (E. coli in 1:4 CA-MHB (pH 7.4), 2.5 μM), 0.295; with non-growing UPEC CFT073 [1] (E. coli in 1:4 CA-MHB (pH 7.4), 5 μM) it was 0.108; with non-growing UPEC CFT073 [1] (E. coli in 1:4 CA-MHB (pH 7.4), 10 μM) it was 0.069. Also, the “OD600 at 6hr, Mean” value in the experiment with non-growing UPEC CFT073 [1] (E. coli in 1:4 CA-MHB (pH 7.4), 30 μM) is recorded as 0.079; in the experiment on non-growing UPEC CFT073 [1] (E. coli in LPM (pH 5.5), 0.25 μM), 0.554; in the experiment on non-growing UPEC CFT073 [1] (E. coli in LPM (pH 5.5), 0.5 μM), 0.565; with non-growing UPEC CFT073 [1] (E. coli in LPM (pH 5.5), 1 μM), 0.575; with non-growing UPEC CFT073 [1] (E. coli in LPM (pH 5.5), 2.5 μM), 0.579; in the experiment on non-growing UPEC CFT073 [1] (E. coli in LPM (pH 5.5), 5 μM), 0.583. The “OD600 at 6hr, Mean” value in the experiment on non-growing UPEC CFT073 [1] (E. coli in LPM (pH 5.5), 10 μM) came out at 0.582; with non-growing UPEC CFT073 [1] (E. coli in LPM (pH 5.5), 30 μM) it was 0.588. Besides, in the experiment with non-growing UPEC CFT073 [1], the EC50 amounted to 2.22 µM. Besides, the “Log10(CFU/ml), Replicate #1” value in the experiment with non-growing UPEC CFT073 [2] (0.25 μM) is 9.301 Log10(CFU/ml); in the experiment on non-growing UPEC CFT073 [2] (0.5 μM) it was 9.279 Log10(CFU/ml); with non-growing UPEC CFT073 [2] (1 μM), 9.204 Log10(CFU/ml); with non-growing UPEC CFT073 [2] (2.5 μM) it was 9.204 Log10(CFU/ml); in the experiment with non-growing UPEC CFT073 [2] (5 μM) it was 8.954 Log10(CFU/ml); in the experiment on non-growing UPEC CFT073 [2] (10 μM) it was 6.623 Log10(CFU/ml). In addition, the “Log10(CFU/ml), Replicate #2” value in the experiment with non-growing UPEC CFT073 [2] (0.25 μM) is given as 8.699 Log10(CFU/ml); in the experiment on non-growing UPEC CFT073 [2] (0.5 μM) it was 8.505 Log10(CFU/ml); in the experiment on non-growing UPEC CFT073 [2] (1 μM), 8.477 Log10(CFU/ml); in the experiment on non-growing UPEC CFT073 [2] (2.5 μM) it was 8.845 Log10(CFU/ml); in the experiment on non-growing UPEC CFT073 [2] (5 μM), 6.778 Log10(CFU/ml); with non-growing UPEC CFT073 [2] (10 μM), 6.699 Log10(CFU/ml). Further, the “Log10(CFU/ml), Replicate #3” value in the experiment on non-growing UPEC CFT073 [2] (0.25 μM) is 9.079 Log10(CFU/ml); in the experiment on non-growing UPEC CFT073 [2] (0.5 μM), 8.602 Log10(CFU/ml); in the experiment with non-growing UPEC CFT073 [2] (1 μM), 9.204 Log10(CFU/ml); in the experiment on non-growing UPEC CFT073 [2] (2.5 μM), 8.301 Log10(CFU/ml); with non-growing UPEC CFT073 [2] (5 μM), 7.176 Log10(CFU/ml); with non-growing UPEC CFT073 [2] (10 μM), 6.532 Log10(CFU/ml). In addition, the “Δlog10(CFU/ml)” value in the experiment on non-growing UPEC CFT073 [2] (0.25 μM) is on record as -0.049 log10(CFU/ml); with non-growing UPEC CFT073 [2] (0.5 μM), 0.182 log10(CFU/ml); with non-growing UPEC CFT073 [2] (1 μM), 0.016 log10(CFU/ml); in the experiment on non-growing UPEC CFT073 [2] (2.5 μM) it was 0.194 log10(CFU/ml); in the experiment with non-growing UPEC CFT073 [2] (5 μM) it was 1.341 log10(CFU/ml); in the experiment with non-growing UPEC CFT073 [2] (10 μM), 2.359 log10(CFU/ml). Also, the MIC with P. aeruginosa DSM1117 is over 80 µM; in the experiment with E. coli CFT073 (UPEC) (1:4 diluted CA-MHB, read-out: MIC (μM) 1:4 CA-MHB) it was over 80 µM; in the experiment on E. coli CFT073 (UPEC) (CA-MHB, read-out: MIC (μM) CA-MHB), over 80 µM. The “MIC (μM) CA-MHB +PAβN” value with E. coli CFT073 (UPEC) (CA-MHB with 10 μg/ml efflux pump inhibitor PaβN) was over 80 µM. The “MIC (μM) TSB” value with S. flexneri 5a M90T (S. flexneri, extracellular bacteria in TSB) was over 128 µM.

Turning to `CC[C@H]1OC(=O)C[C@@H](O)[C@H](C)[C@@H](O[C@@H]2O[C@H](C)[C@@H](O[C@H]3C[C@@](C)(O)[C@@H](O)[C@H](C)O3)[C@H](N(C)C)[C@H]2O)[C@@H](CC=O)C[C@@H](C)C(=O)/C=C/C(C)=C/[C@@H]1CO[C@@H]1O[C@H](C)[C@@H](O)[C@@H](OC)[C@H]1OC` [Tylosin], in the experiment with non-growing UPEC CFT073 [1] (Escherichia coli), the EC50 amounted to 7.28 µM. Further, the MIC was over 160 µM with P. aeruginosa DSM1117 (Pseudomonas aeruginosa, DSM1117); 160 µM (≈ 147 µg/mL) with E. coli CFT073 (UPEC) (Escherichia coli, 1:4 diluted CA-MHB, read-out: MIC (μM) 1:4 CA-MHB); 160 µM (≈ 147 µg/mL) in the experiment on E. coli CFT073 (UPEC) (Escherichia coli, CA-MHB, read-out: MIC (μM) CA-MHB); 1 µM (≈ 0.916 µg/mL) in the experiment with S. aureus DSM2569; 128 µM (≈ 117 µg/mL) with S. flexneri 5a M90T (Shigella flexneri, 5AM90T, read-out: MIC (μM) TSB).

On to `CC[C@H]1OC(=O)[C@H](C)C(=O)[C@H](C)[C@@H](O[C@@H]2O[C@H](C)C[C@H](N(C)C)[C@H]2O)[C@](C)(OC)C[C@@H](C)C(=O)[C@H](C)[C@H]2N(CCCCn3cnc(-c4cccnc4)c3)C(=O)O[C@]12C` [telithromycin], for which the “activity in the dilution-regrowth screen” value with non-growing UPEC CFT073 [1] is “no activity”.

For the molecule colistin, the “activity in the dilution-regrowth screen” value in the experiment on non-growing UPEC CFT073 [1] is on record as “not identified as hits”.
